Assay results: patent US20100160351A1, “PHARMACEUTICAL COMPOSITIONS AND METHODS FOR TREATING HYPERURICEMIA AND RELATED DISORDERS” (NUON THERAPEUTICS, INC., priority 2008, published 2010)

Test system: monosodium urate (MSU) crystal-induced air pouch inflammation
Assay: Air Pouch Model 2: MSU crystal air pouch, rodent model of gout
Assay type: in vivo, male Sprague-Dawley rats
Settings: for Average Exudate Volume, Mean / Average Plasma Extravasation, OD620 nm, Mean / Total WBC in Sample, Mean / WBC in exudate, Mean: 4 h after MSU
Experimental: The objective of this study was to evaluate the anti-inflammatory potency of Tranilast. This evaluation was carried out in male Sprague-Dawley rats in a rodent model of gout. The animals were injected subcutaneously with 20 ml of sterile air, followed three days later by a supplemental injection with 20 ml of sterile air. Six days after the initial sterile air injection, the rats were injected intravenously with Evan's Blue and pretreated for thirty minutes with oral administration of 25 mg/kg, 50 mg/kg, 100 mg/kg or 200 mg/kg tranilast. After the pretreatment period, the rats were injected with 150 mg of monosodium urate (MSU) crystals (10 mg/ml) into the air pouch. Four hours later, the air pouch was injected with 5 ml heparinized saline and the entire contents of the air pouch removed, recording the total volume. The air pouch contents were evaluated for plasma extravasation and total white blood cell (WBC) count.
(§1) On day 0 the rats were anesthetized in a biological cabinet, the nape of the neck was cleansed with 70% isopropanol followed by iodine tincture (VEDCO, lot L021976). Twenty ml sterile (0.22 μm, Millipore, Cat. SLGSV255F, lot R8J1494130, exp July 2011) air was injected subcutaneously using a 23 G×2 inch needle fixed to a 20 ml syringe. The rats were returned to routine housing. No adverse reactions were observed.
as §1, with “day 3” for “day 0”, “μm, Fisher Scientific,” for “μm, Millipore,”, “Cat. 09-720-3,” for “Cat. SLGSV255F,”, “lot R5SN25683)” for “lot R8J1494130, exp July 2011)”
On day 6 the rats were weighed (Mettler, Model PE3000, SN: F69474) and injected intravenously injected with 2 ml/kg Evans Blue. The animals were dosed orally with 0.5 ml/kg, 1 ml/kg, 2; ml/kg or 4 ml/kg tranilast, or 4 ml/kg vehicle.
Thirty minutes after test material administration, the rats were anesthetized and five groups (2-6) were injected into the air pouch with 15 ml MSU using a 19 G×2 inch needle fitted to a 20 ml syringe. Group 1 was injected with 15 ml saline. The rats were returned to their cages, no adverse affects were observed.
Four hours after MSU/saline injection, the rats were anesthetized and 5 ml 10 U/ml heparinized saline was injected into the air pouch. The air pouch was gently massaged, the contents immediately removed using a 14 G×1 inch needle fitted to a 6 ml syringe, and the exudate volume recorded. An aliquot of the exudate was transferred to heparin-treated microtainer tubes (Becton Dickinson, Cat. 365958, lot 9140110, expo July 2010) for white blood cell (WBC) counting. The remainder of the exudate was centrifuged (Hermle Labrotechnik, Model Z200A, SN: 44060036), the supernatants removed and evaluated at OD620nm (Spectronic Unicam, Model 4000 1/4, SN: 3SGD003006) for plasma extravasation.

[1] = 25 mg/kg oral, 30 min before MSU
[2] = 50 mg/kg oral, 30 min before MSU
[3] = 100 mg/kg oral, 30 min before MSU
[4] = 200 mg/kg oral, 30 min before MSU
[5] = highest dose 200 mg/kg oral, 30 min before MSU
[6] = oral, sigmoidal dose-response (variable slope) analysis

In the case of `COc1ccc(/C=C/C(=O)Nc2ccccc2C(=O)O)cc1OC` [Tranilast, 2-[[3-(3,4-dimethoxyphenyl)-1-oxo-2-propenyl]amino]benzoic acid], the “Average Exudate Volume, Mean” value [1] is reported as 6.5 mL, the “Average Plasma Extravasation, OD620 nm, Mean” value (shortened to “Average Plasma Extravasation”) [1] is reported as 1.431 and the “Total WBC in Sample, Mean” value [1] is reported as 20550000. The “WBC in exudate, Mean” value [1] was 3196000 cells/ml, the “Average Exudate Volume, Mean” value [2] was 8.6 mL and the “Average Plasma Extravasation” value [2] was 1.048. The “Total WBC in Sample, Mean” value [2] was 12476000, the “WBC in exudate, Mean” value [2] was 1557000 cells/ml and the “Average Exudate Volume, Mean” value [3] was 8.0 mL. For the same compound, the “Average Plasma Extravasation” value [3] was 0.939, the “Total WBC in Sample, Mean” value [3] was 10629600 and the “WBC in exudate, Mean” value [3] was 1566000 cells/ml. The “Average Exudate Volume, Mean” value [4] was 3.2 mL, the “Average Plasma Extravasation” value [4] was 0.819 and the “Total WBC in Sample, Mean” value [4] was 10305200. The “WBC in exudate, Mean” value [4] was 3516000 cells/ml, the “inhibition of plasma extravasation” value [5] was 42% and the “inhibition of white blood cell infiltration” value [5] was 80%. For the same compound, the “effect on MSU-induced parameters (plasma extravasation, leukocyte infiltration)” value (oral 25-200 mg/kg, 30 min before MSU) was “dose-dependent inhibition”, the “IC50 effect on plasma extravasation” value [6] was 45 mg/kg and the “IC50 effect on white blood cell infiltration” value [6] was 16 mg/kg.
